According to the supplement of paper PMC10331698:
± gives the standard deviation of the averaged measurements.

Key:
Assay in all cases: level (log10 ratio to DMSO vehicle control); higher = higher biomarker level / cell amount than vehicle control
Details in all cases: in DMSO
[1] = compound: C=CC(=O)OCC(F)(F)C(F)(F)C(F)(F)C(F)(F)C(F)(F)C(F)(F)C(F)(F)F [1H,1H-Perfluorooctyl acrylate]
Protocol: (§1)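 BioMAP Diversity Plus panel of 12 human primary cell co-culture systems (3C, 4H, LPS, SAg, BT, BF4T, BE3C, CASM3C, HDF3CGF, KF3CT, MyoF, Mphg). Compounds were added 1 h before stimulation and left for 24 h (MyoF 48 h; BT 72 h for soluble read-outs or 6 d for IgG). Biomarkers were read by ELISA, cytotoxicity by SRB, PBMC viability and proliferation by Alamar Blue. Each well value was divided by the mean of 8 DMSO control wells on the same plate and log10 transformed; duplicate blinded samples were tested at 4 concentrations.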

Perfluoro-1-iodohexane = compound: FC(F)(F)C(F)(F)C(F)(F)C(F)(F)C(F)(F)C(F)(F)I [Perfluoro-1-iodohexane]
Protocol: as §1

Perfluoroheptanoic acid = compound: O=C(O)C(F)(F)C(F)(F)C(F)(F)C(F)(F)C(F)(F)C(F)(F)F [Perfluoroheptanoic acid]
Protocol: as §1

[2] = compound: O=C(O)C(F)(F)C(F)(F)OC(F)(F)F [Perfluoro-3-methoxypropanoic acid]
Protocol: as §1

[3] = compound: O=C(O)C(F)(F)OC(F)(F)C(F)(F)OC(F)(F)C(=O)O [Perfluoro-3,6-dioxaoctane-1,8-dioic acid]
Protocol: as §1

[4] = compound: O=S(=O)(O)C(F)(F)C(F)(F)C(F)(F)C(F)(F)C(F)(F)C(F)(F)F [Perfluorohexanesulfonic acid]
Protocol: as §1

Row | Test System | level (log10) ([1]; 6700 nM) | level (log10) ([1]; 20000 nM) | level (log10) ([1]; 60000 nM) | level (log10) (Perfluoro-1-iodohexane; 6700 nM) | level (log10) (Perfluoro-1-iodohexane; 20000 nM) | level (log10) (Perfluoro-1-iodohexane; 60000 nM) | level (log10) (Perfluoroheptanoic acid; 6700 nM) | level (log10) (Perfluoroheptanoic acid; 20000 nM) | level (log10) (Perfluoroheptanoic acid; 60000 nM) | level (log10) ([2]; 6700 nM) | level (log10) ([2]; 20000 nM) | level (log10) ([2]; 60000 nM) | level (log10) ([3]; 6700 nM) | level (log10) ([3]; 20000 nM) | level (log10) ([3]; 60000 nM) | level (log10) ([4]; 6700 nM) | level (log10) ([4]; 20000 nM) | level (log10) ([4]; 60000 nM)
1 | KF3CT:CCL2/MCP-1 | -0.0195 ± 0.022 | -0.0195 ± 0.0021 | -0.016 ± 0.011 | 0.0225 ± 0.032 | -0.015 ± 0.0014 | -0.0185 ± 0.047 | 0.0165 ± 0.021 | 0.033 ± 0.024 | 0.0255 ± 0.053 | 0.0035 ± 0.011 | -0.0165 ± 0.0092 | -0.011 ± 0.013 | -0.0135 ± 0.016 | -0.011 ± 0.0057 | -0.0045 ± 0.013 | 0.0075 ± 0.032 | -0.001 ± 0.013 | 0.0205 ± 0.023
2 | CASM3C:Serum Amyloid A | 0.03 ± 0.014 | 0.032 ± 0.044 | 0.0485 ± 0.013 | 0.0035 ± 0.042 | 0.008 ± 0.035 | 0.007 ± 0.025 | -0.006 ± 0.021 | -0.013 ± 0.04 | 0.022 ± 0.082 | -0.0155 ± 0.0064 | -0.017 ± 0.0099 | 0.008 ± 0.069 | -0.012 ± 0.0028 | -0.0235 ± 0.011 | 0.0265 ± 0.06 | -0.0215 ± 0.057 | -0.0085 ± 0.015 | 0.007 ± 0.021
3 | KF3CT:CD54/ICAM-1 | -0.005 ± 0.016 | -0.0075 ± 0.005 | -0.0045 ± 0.0092 | 0.001 ± 0.0085 | 0.008 ± 0.021 | 0 ± 0.011 | -0.023 ± 0.0042 | -0.0085 ± 0.0035 | -0.0315 ± 0.00071 | 0.019 ± 0.0085 | 0.009 ± 0.018 | 0.009 ± 0.0071 | 0 ± 0.0057 | 0.01 | 0.0065 ± 0.015 | -0.0165 ± 0.005 | -0.0165 ± 0.0078 | -0.013 ± 0.014
4 | MyoF:bFGF | 0.003 | -0.0055 ± 0.0021 | 0.012 ± 0.024 | -0.0085 ± 0.0064 | -0.002 ± 0.0042 | 0.0235 ± 0.036 | -0.029 ± 0.0085 | -0.0255 ± 0.013 | -0.0075 ± 0.0021 | 0.002 ± 0.018 | -0.004 ± 0.037 | 0.0045 ± 0.025 | 0.0075 ± 0.021 | 0.001 ± 0.0099 | 0 ± 0.018 | 0.0035 ± 0.005 | 0.005 ± 0.0085 | 0.004 ± 0.014
5 | KF3CT:uPA | 0.01 ± 0.0014 | -0.004 ± 0.013 | 0.0135 ± 0.023 | 0.013 ± 0.0042 | 0.006 ± 0.023 | 0.007 ± 0.017 | 0.007 ± 0.016 | 0.0065 ± 0.0021 | 0.0075 ± 0.013 | 0 ± 0.018 | -0.0055 ± 0.012 | 0.002 ± 0.0085 | 0.0005 ± 0.0078 | 0 ± 0.0071 | 0.012 ± 0.0014 | -0.0135 ± 0.015 | -0.0105 ± 0.015 | -0.002 ± 0.0014
6 | lMphg:CD40 | -0.0125 ± 0.049 | -0.0125 ± 0.097 | -0.0635 ± 0.039 | -0.011 ± 0.0071 | -0.0265 ± 0.0035 | -0.0375 ± 0.013 | -0.0045 ± 0.018 | -0.0265 ± 0.012 | -0.028 ± 0.027 | -0.0295 ± 0.03 | -0.0165 ± 0.0021 | -0.0225 ± 0.04 | -0.03 ± 0.017 | -0.0085 ± 0.013 | -0.0105 ± 0.016 | -0.0205 ± 0.037 | 0.019 ± 0.011 | 0.0045 ± 0.011
7 | BE3C:MMP-1 | -0.018 ± 0.016 | -0.0215 ± 0.0035 | 0.006 ± 0.0014 | -0.003 ± 0.0085 | -0.0065 ± 0.011 | 0.043 ± 0.016 | 0.0345 ± 0.015 | 0.0405 ± 0.043 | 0.0865 ± 0.067 | -0.0025 ± 0.018 | 0.002 ± 0.013 | 0.0155 ± 0.00071 | -0.0085 ± 0.029 | -0.023 ± 0.047 | 0.011 ± 0.025 | 0.0075 ± 0.00071 | 0.0375 ± 0.018 | 0.227 ± 0.042
8 | CASM3C:IL-6 | -0.0135 ± 0.029 | -0.027 ± 0.048 | -0.0125 ± 0.03 | -0.0035 ± 0.012 | -0.0055 ± 0.0021 | 0.018 ± 0.0099 | -0.0135 ± 0.0078 | -0.0205 ± 0.021 | 0.008 ± 0.085 | -0.001 ± 0.038 | 0 ± 0.044 | 0.0245 ± 0.0078 | -0.0065 ± 0.047 | -0.014 ± 0.027 | 0.0285 ± 0.00071 | -0.027 ± 0.017 | -0.0225 ± 0.0021 | -0.0025 ± 0.036
9 | MyoF:TIMP-1 | 0.0075 ± 0.012 | 0.037 ± 0.0014 | 0.0405 ± 0.005 | 0.036 ± 0.0085 | 0.0395 ± 0.011 | -0.058 ± 0.0014 | -0.011 ± 0.0042 | 0.0225 ± 0.0021 | 0.0515 ± 0.0064 | 0.015 ± 0.055 | 0.0185 ± 0.033 | 0.0455 ± 0.012 | 0.0065 ± 0.056 | 0.02 ± 0.037 | 0.026 ± 0.0014 | 0.0215 ± 0.064 | 0.0835 ± 0.053 | 0.099 ± 0.042
10 | MyoF:Decorin | -0.0145 ± 0.011 | -0.005 | 0.003 ± 0.018 | 0.0185 ± 0.011 | 0.023 ± 0.0042 | -0.012 ± 0.044 | -0.0015 ± 0.013 | 0.036 ± 0.0042 | 0.0505 ± 0.035 | 0.005 ± 0.017 | 0.0085 ± 0.0078 | 0.0085 ± 0.03 | -0.0045 ± 0.011 | -0.01 | -0.0005 ± 0.013 | -0.0305 ± 0.046 | -0.0105 ± 0.00071 | -0.0095 ± 0.0064
11 | HDF3CGF:EGFR | 0.0075 ± 0.012 | 0.0265 ± 0.019 | -0.051 ± 0.093 | 0.016 ± 0.05 | 0.0115 ± 0.043 | -0.035 ± 0.14 | -0.008 ± 0.016 | 0.004 ± 0.0028 | 0.01 ± 0.023 | -0.002 ± 0.0085 | 0.003 ± 0.0085 | 0.0165 ± 0.029 | -0.001 ± 0.0057 | 0.0145 ± 0.0021 | 0.0245 ± 0.035 | 0.0045 ± 0.025 | -0.0125 ± 0.039 | -0.021 ± 0.04
12 | lMphg:CCL2/MCP-1 | -0.0065 ± 0.039 | -0.016 ± 0.0057 | 0.002 ± 0.03 | -0.021 ± 0.0099 | 0.0145 ± 0.032 | -0.003 ± 0.025 | -0.0365 ± 0.021 | -0.019 ± 0.0042 | 0.027 ± 0.023 | -0.0175 ± 0.025 | -0.0225 ± 0.029 | -0.0075 ± 0.028 | -0.0165 ± 0.021 | -0.019 ± 0.027 | -0.008 ± 0.0057 | -0.014 ± 0.0085 | 0.006 ± 0.037 | 0.054 ± 0.024
13 | CASM3C:CXCL8/IL-8 | 0.004 ± 0.0099 | -0.006 ± 0.011 | 0.016 ± 0.0028 | 0.0055 ± 0.0092 | -0.0005 ± 0.0078 | 0.011 ± 0.021 | -0.0085 ± 0.0064 | -0.002 ± 0.0042 | 0.046 ± 0.018 | 0.0045 ± 0.03 | 0.006 ± 0.03 | 0.033 ± 0.0028 | 0.016 ± 0.042 | 0.0125 ± 0.011 | 0.023 ± 0.0071 | -0.006 ± 0.013 | -0.003 | 0.026 ± 0.014
14 | 3C:CD142/Tissue Factor | 0.001 ± 0.0057 | 0 ± 0.0014 | -0.0165 ± 0.0078 | 0.0025 ± 0.032 | 0.0005 ± 0.013 | 0.0185 ± 0.022 | -0.0065 ± 0.037 | -0.004 ± 0.027 | 0.0285 ± 0.039 | -0.0125 ± 0.066 | -0.049 ± 0.034 | -0.0095 ± 0.057 | -0.004 ± 0.042 | -0.0155 ± 0.013 | -0.0025 ± 0.059 | 0.014 ± 0.023 | 0.0105 ± 0.025 | 0.0545 ± 0.011
